Test results reported in US20100168233A1, “TERBINAFINE FORMULATION” (POWER PAPER LTD, priority 2007, published 2010).
Where a name gives a salt, the structure may show the parent alone. Read-outs that look alike come from different tables or passages of the source. One block for each compound: values may come before it.

What was measured:
[1] = In vitro testing of iontophoretic delivery of terbinafine forms and hydrogel formulations to the nail bed
Text: The acetic acid terbinafine salt may be used in the preparation of a medication for the treatment of any suitable disorder, such as the treatment of a fungal infection. In one aspect, the acetic acid terbinafine salt may be for treatment of onychomycosis.
The terbinafine acetate and/or mixture of terbinafine and acetic acid may be added to a hydrogel.

[2] = cited from earlier work
dermatophytes = conditions: cited from earlier work
[3] = cited from earlier work; remark: listed apart in the source

delivery of terbinafine to the nail bed [1]: about 10 μg/cm^2
Compound: CN(C/C=C/C#CC(C)(C)C)Cc1cccc2ccccc12 [terbinafine base, N,6,6-trimethyl-N-(naphthalen-1-ylmethyl) hept-2-en-4-yn-1-amine]
water solubility ([2]; listed as Terbinafine base): significantly less water soluble

Compound: terbinafine acetate
delivery of terbinafine to the nail bed ([1]; in vitro, iontophoretic delivery, similar conditions): about 150 μg/cm^2

delivery of terbinafine to the nail bed [1]: about 45 μg/cm^2
Compound: CN(C/C=C/C#CC(C)(C)C)Cc1cccc2ccccc12 [terbinafine HCl, terbinafine hydrochloride]
minimum inhibitory concentration (MIC) for dermatophytes (dermatophytes): about 0.0015 μg/ml

Compound: CN(C/C=C/C#CC(C)(C)C)Cc1cccc2ccccc12 [terbinafine, N,6,6-trimethyl-N-(naphthalen-1-ylmethyl) hept-2-en-4-yn-1-amine]
pKa of terbinafine [3]: about 7.1 | solubility in methanol and ethanol [2]: very soluble | water solubility [2]: low
